Measured values taken from US8299065B2, “Antibacterial condensed thiazoles” (Biota Europe Ltd., priority 2007, dated 2012).
≈ marks a conversion by molar mass, not a printed value.

The compounds below were run on Enterococcus faecalis ATCC 29212 (assay: MIC testing against Enterococcus faecalis ATCC 29212). Conditions: not given.
Assay type: cell-based
Description: Minimum Inhibitory Concentration (MIC) Testing Compounds of this invention were tested for antimicrobial activity by susceptibility testing in liquid or on solid media. MICs for compounds against each strain were determined by the broth microdilution or agar dilution method according to the guidelines of the Clinical Laboratories and Standards Institute, formerly the National Committee for Clinical Laboratory Standards (Clinical Laboratories and Standards Institute. Methods for Dilution Antimicrobial Susceptibility Tests for Bacteria That Grow Aerobically; Approved Standard—Seventh Edition. Document M7-A7. CLSI, Wayne, Pa., 2006; Clinical Laboratories and Standards Institute. Methods for Antimicrobial Susceptibility Testing of Anaerobic Bacteria; Approved Standard—Sixth Edition. Document M11-A6. CLSI, Wayne, Pa., 2004).

Compound | MICs against Enterococcus faecalis, Activity
tert-butyl 3-((4-(2-(3-ethylureido)-6-fluorobenzo[d]thiazol-5-yl)-5-yl)-2,2′-dioxo-2H-1,4′-bipyridin-1′(2′H)-yl)methyl)piperidine-1-carboxylate [Example 64] | B (MICs of 0.25-1 μg/ml)

Same assay, conditions: ATCC29212, read-out: MICs against Enterococcus faecalis, Activity

Compound | MIC
CCNC(=O)Nc1nc2cc(-c3ccn(C4CCNC4)c(=O)c3)c(F)cc2s1 (centres unmarked) [Example 67, 1-ethyl-3-(6-fluoro-5-(2-oxo-1-(pyrrolidin-3-yl)-1,2-dihydropyridin-4-yl)benzo[d]thiazol-2-yl)urea] | 2 to 16 µg/mL (≈ 4.98 to 39.9 µM)
CCNC(=O)Nc1nc2cc(-c3cncc4ccccc34)ccc2s1 [Example 20, 1-ethyl-3-(5-(isoquinolin-4-yl)benzo[d]thiazol-2-yl)urea] | 0.25 to 1 µg/mL (≈ 0.718 to 2.87 µM)
CCNC(=O)Nc1nc2cc(-c3cnc(N4CCNCC4)nc3)c(F)cc2s1.Cl [Example 42, 1-ethyl-3-(6-fluoro-5-(2-(piperazin-1-yl)pyrimidin-5-yl)benzo[d]thiazol-2-yl)urea hydrochloride salt] | 2 to 16 µg/mL
CCNC(=O)Nc1nc2cc(-c3cc(C)n(Cc4cccc(C)n4)c(=O)c3)ccc2s1 [Example 33, 1-ethyl-3-(5-(6-methyl-1-((6-methylpyridin-2-yl)methyl)-2-oxo-1,2-dihydropyridin-4-yl)benzo[d]thiazol-2-yl)urea] | 0.25 to 1 µg/mL (≈ 0.577 to 2.31 µM)
CCNC(=O)Nc1nc2cc(-c3cc(C)n(CC4CCCN4C(=O)OC(C)(C)C)c(=O)c3)c(F)cc2s1 (centres unmarked) [Example 53, tert-butyl 2-((4-(2-(3-ethylureido)-6-fluorobenzo[d]thiazol-5-yl)-6-methyl-2-oxopyridin-1(2H)-yl)methyl)pyrrolidine-1-carboxylate] | 2 to 16 µg/mL (≈ 3.78 to 30.2 µM)
CCNC(=O)Nc1nc2cc(-c3ccc(N4CCOCC4)nc3)ccc2s1 [Example 27, 1-ethyl-3-(5-(6-morpholinopyridin-3-yl)benzo[d]thiazol-2-yl)urea] | 2 to 16 µg/mL (≈ 5.22 to 41.7 µM)
CCNC(=O)Nc1nc2cc(-c3ccc(CN4CCOCC4)nc3)c(F)cc2s1 [Example 66, 1-ethyl-3-(6-fluoro-5-(6-(morpholinomethyl)pyridin-3-yl)benzo[d]thiazol-2-yl)urea] | 2 to 16 µg/mL (≈ 4.81 to 38.5 µM)
CCNC(=O)Nc1nc2cc(-c3ccc(CC(=O)NC)nc3)ccc2s1 [Example 2, 2-{5-[2-(3-Ethyl-ureido)-benzothiazol-5-yl]-pyridin-2-yl}-N-methyl-acetamide] | 2 to 16 µg/mL (≈ 5.41 to 43.3 µM)
CCNC(=O)Nc1nc2cc(-c3cnn(C(C)C(=O)OC)c3)c(F)cc2s1 (centres unmarked) [Example 47, methyl 2-(4-(2-(3-ethylureido)-6-fluorobenzo[d]thiazol-5-yl)-1H-pyrazol-1-yl)propanoate] | 2 to 16 µg/mL (≈ 5.11 to 40.9 µM)
CCNC(=O)Nc1nc2cc(-c3cc[nH]c(=O)c3)ccc2s1 [Example 29, 1-ethyl-3-(5-(2-oxo-1,2-dihydropyridin-4-yl)benzo[d]thiazol-2-yl)urea] | 2 to 16 µg/mL (≈ 6.36 to 50.9 µM)
CCNC(=O)Nc1nc2cc(-c3cnc4c(c3)OCCN4C)ccc2s1 [Example 19, 1-ethyl-3-(5-(4-methyl-3,4-dihydro-2H-pyrido[3,2-b][1,4]oxazin-7-yl)benzo[d]thiazol-2-yl)urea] | 0.25 to 1 µg/mL (≈ 0.677 to 2.71 µM)
CCNC(=O)Nc1nc2cc(-c3ccc4nnnn4c3)ccc2s1 [Example 7, 1-ethyl-3-(5-(tetrazolo[1,5-a]pyridin-6-yl)benzo[d]thiazol-2-yl)urea] | 2 to 16 µg/mL (≈ 5.89 to 47.1 µM)
CCNC(=O)Nc1nc2cc(-c3c[nH]c4ncccc34)c(F)cc2s1 [Example 48, 1-ethyl-3-(6-fluoro-5-(1H-pyrrolo[2,3-b]pyridin-3-yl)benzo[d]thiazol-2-yl)urea] | 0.25 to 1 µg/mL (≈ 0.703 to 2.81 µM)
CCNC(=O)Nc1nc2cc(-c3cnc(N4CCN(CCO)CC4)nc3)c(F)cc2s1 [Example 41, 1-ethyl-3-(6-fluoro-5-(2-(4-(2-hydroxyethyl)piperazin-1-yl)pyrimidin-5-yl)benzo[d]thiazol-2-yl)urea] | 2 to 16 µg/mL (≈ 4.49 to 35.9 µM)
CCNC(=O)Nc1nc2cc(-c3ccc4ncnn4c3)ccc2s1 [Example 25, 1-(5-([1,2,4]triazolo[1,5-a]pyridin-6-yl)benzo[d]thiazol-2-yl)-3-ethylurea] | 0.25 to 1 µg/mL (≈ 0.739 to 2.96 µM)
CCNC(=O)Nc1nc2cc(-c3ccc(NC(C)=O)nc3)cnc2s1 [Example 76, N-(5-(2-(3-ethylureido)thiazolo[5,4-b]pyridin-6-yl)pyridin-2-yl)acetamide] | 2 to 16 µg/mL (≈ 5.61 to 44.9 µM)
CCNC(=O)Nc1nc2cc(-c3ccc(C(N)=NO)nc3)c(F)cc2s1 [Example 60, 5-(2-(3-ethylureido)-6-fluorobenzo[d]thiazol-5-yl)-N′-hydroxypicolinimidamide] | 0.25 to 1 µg/mL (≈ 0.668 to 2.67 µM)
CCNC(=O)Nc1nc2cc(-c3cc(C)n(Cc4ccccn4)c(=O)c3)ccc2s1 [Example 35, 1-ethyl-3-(5-(6-methyl-2-oxo-1-(pyridin-2-ylmethyl)-1,2-dihydropyridin-4-yl)benzo[d]thiazol-2-yl)urea] | 0.25 to 1 µg/mL (≈ 0.596 to 2.38 µM)
CCNC(=O)Nc1nc2cc(-c3ccn(C)c(=O)c3)c(OC)cc2s1 [Example 72, 1-ethyl-3-(6-methoxy-5-(1-methyl-2-oxo-1,2-dihydropyridin-4-yl)benzo[d]thiazol-2-yl)urea] | 0.25 to 1 µg/mL (≈ 0.697 to 2.79 µM)
CCNC(=O)Nc1nc2cc(-c3cnc(-n4ccnc4)nc3)ccc2s1 [Example 28, 1-(5-(2-(1H-imidazol-1-yl)pyrimidin-5-yl)benzo[d]thiazol-2-yl)-3-ethylurea] | 2 to 16 µg/mL (≈ 5.47 to 43.8 µM)

Compound | MIC
CCNC(=O)Nc1nc2cc(-c3cncc(OC)c3)c(F)cc2s1 [Example 58, 1-ethyl-3-(6-fluoro-5-(5-methoxypyridin-3-yl)benzo[d]thiazol-2-yl)urea] | 0.25 to 1 µg/mL (≈ 0.722 to 2.89 µM)
CCNC(=O)Nc1nc2cc(-c3cc(C)n(CCCN(C)C)c(=O)c3)c(F)cc2s1 [Example 54, 1-(5-(1-(3-(dimethylamino)propyl)-6-methyl-2-oxo-1,2-dihydropyridin-4-yl)-6-fluorobenzo[d]thiazol-2-yl)-3-ethylurea] | 2 to 16 µg/mL (≈ 4.63 to 37.1 µM)
CCNC(=O)Nc1nc2cc(-c3cnc4c(c3)OCCN4)ccc2s1 [Example 8, 1-(5-(3,4-dihydro-2H-pyrido[3,2-b][1,4]oxazin-7-yl)benzo[d]thiazol-2-yl)-3-ethylurea] | 2 to 16 µg/mL (≈ 5.63 to 45 µM)
CCNC(=O)Nc1nc2cc(-c3ccc(NC(C)=O)nc3)ccc2s1 [Example 26, N-(5-(2-(3-ethylureido)benzo[d]thiazol-5-yl)pyridin-2-yl)acetamide] | 2 to 16 µg/mL (≈ 5.63 to 45 µM)
CCNC(=O)Nc1nc2cc(-c3cc(OC)ccn3)c(F)cc2s1 [Example 56, 1-ethyl-3-[6-fluoro-5-(4-methoxy-pyridin-2-yl)-benzothiazol-2-yl]-urea] | 2 to 16 µg/mL (≈ 5.77 to 46.2 µM)
CCNC(=O)Nc1nc2cc(-c3cnc(N4CCCC(C(=O)O)C4)nc3)c(F)cc2s1 (centres unmarked) [Example 46, 1-(5-(2-(3-ethylureido)-6-fluorobenzo[d]thiazol-5-yl)pyrimidin-2-yl)piperidine-3-carboxylic acid] | 0.25 to 1 µg/mL (≈ 0.562 to 2.25 µM)
CCNC(=O)Nc1nc2cc(-c3ccc(C(=O)OC)nc3)ccc2s1 [Example 15, methyl 5-(2-(3-ethylureido)benzo[d]thiazol-5-yl)picolinate] | 2 to 16 µg/mL (≈ 5.61 to 44.9 µM)
CCNC(=O)Nc1nc2cc(-c3cccnc3)c(OC)cc2s1 [Example 71, 1-ethyl-3-(6-methoxy-5-(pyridin-3-yl)benzo[d]thiazol-2-yl)urea] | 0.25 to 1 µg/mL (≈ 0.761 to 3.05 µM)
CCNC(=O)Nc1nc2cc(-c3ccc(-c4nnn(C)n4)nc3)ccc2s1 [Example 30, 1-ethyl-3-(5-(6-(2-methyl-2H-tetrazol-5-yl)pyridin-3-yl)benzo[d]thiazol-2-yl)urea] | 0.25 to 1 µg/mL (≈ 0.657 to 2.63 µM)
CCNC(=O)Nc1nc2cc(-c3cnc(N4CCN(C)CC4)nc3)c(F)cc2s1 [Example 57, 1-ethyl-3-(6-fluoro-5-(2-(4-methylpiperazin-1-yl)pyrimidin-5-yl)benzo[d]thiazol-2-yl)urea] | 2 to 16 µg/mL (≈ 4.81 to 38.5 µM)
CCNC(=O)Nc1nc2cc(-c3cn[nH]c3)ccc2s1 [Example 21, 1-(5-(1H-pyrazol-4-yl)benzo[d]thiazol-2-yl)-3-ethylurea] | 2 to 16 µg/mL (≈ 6.96 to 55.7 µM)
CCNC(=O)Nc1nc2cc(-c3cc(C)oc(=O)c3)ccc2s1 [Example 14, 1-ethyl-3-(5-(6-methyl-2-oxo-2H-pyran-4-yl)benzo[d]thiazol-2-yl)urea] | 2 to 16 µg/mL (≈ 6.07 to 48.6 µM)
CCNC(=O)Nc1nc2cc(-c3cncs3)c(F)cc2s1 [Example 69, 1-ethyl-3-(6-fluoro-5-(thiazol-5-yl)benzo[d]thiazol-2-yl)urea] | 2 to 16 µg/mL (≈ 6.2 to 49.6 µM)
CCNC(=O)Nc1nc2cc(-c3cc(C)n(C(C)c4ccc(C)nc4)c(=O)c3)c(F)cc2s1 (centres unmarked) [Example 78, 1-ethyl-3-(6-fluoro-5-{6-methyl-1-[1-(6-methyl-pyridin-3-yl)-ethyl]-2-oxo-1,2-dihydro-pyridin-4-yl}-benzothiazol-2-yl)-urea] | 0.25 to 1 µg/mL (≈ 0.537 to 2.15 µM)
CCNC(=O)Nc1nc2cc(-c3ccc(=O)n(CC(=O)OCC)c3)ccc2s1 [Example 12, ethyl 2-(5-(2-(3-ethylureido)benzo[d]thiazol-5-yl)-2-oxopyridin-1(2H)-yl)acetate] | 2 to 16 µg/mL (≈ 4.99 to 40 µM)
CCNC(=O)Nc1nc2cc(-c3ccc4nccn4c3)ccc2s1 [Example 6, 1-ethyl-3-(5-(imidazo[1,2-a]pyridin-6-yl)benzo[d]thiazol-2-yl)urea] | 2 to 16 µg/mL (≈ 5.93 to 47.4 µM)
CCNC(=O)Nc1nc2cc(-c3cnc(-n4ccccc4=O)cn3)ccc2s1 [Example 10, 1-ethyl-3-(5-(5-(2-oxopyridin-1(2H)-yl)pyrazin-2-yl)benzo[d]thiazol-2-yl)urea] | 2 to 16 µg/mL (≈ 5.1 to 40.8 µM)
CCNC(=O)Nc1nc2cc(-c3cnc(OC)s3)ccc2s1 [Example 22, 1-ethyl-3-(5-(2-methoxythiazol-5-yl)benzo[d]thiazol-2-yl)urea] | 2 to 16 µg/mL (≈ 5.98 to 47.8 µM)
CCNC(=O)Nc1nc2cc(-c3cccnc3)ccc2s1 [Example 1, 1-Ethyl-3-(5-pyridin-3-yl-benzothiazol-2-yl)-urea] | 0.25 to 1 µg/mL (≈ 0.838 to 3.35 µM)
CCNC(=O)Nc1nc2cc(-c3ccc(=O)n(CCOCC)c3)ccc2s1 [Example 13, 1-(5-(1-(2-ethoxyethyl)-6-oxo-1,6-dihydropyridin-3-yl)benzo[d]thiazol-2-yl)-3-ethylurea] | 2 to 16 µg/mL (≈ 5.17 to 41.4 µM)
